# Measurements taken from patent US9850283B2, “Macrocyclic inhibitors of the PD-1/PD-L1 and CD80(B7-1)/PD-L1 protein/protein interactions” (BRISTOL-MYERS SQUIBB COMPANY, priority 2013, dated 2017).
# Where two headings read alike, the source gives them in different places. Positions of bridges follow the written chain, without caps; N, C: chain ends. Non-standard residues stand in square brackets, D forms with d. Residues, ends and D or L forms follow the SMILES beside them. ξ: configuration not given here. Ala(benzothiazol-2-yl) = N[C@@H](Cc1nc2ccccc2s1)C(=O)O; Phe(F5) = N[C@@H](Cc1c(F)c(F)c(F)c(F)c1F)C(=O)O; Phe(4-CONH2) = NC(=O)c1ccc(C[C@H](N)C(=O)O)cc1; Phe(3,4-F2) = N[C@@H](Cc1ccc(F)c(F)c1)C(=O)O; Phe(4-Cl) = N[C@@H](Cc1ccc(Cl)cc1)C(=O)O; Phe(4-F) = N[C@@H](Cc1ccc(F)cc1)C(=O)O; Bta = N[C@@H](Cc1csc2ccccc12)C(=O)O; Hyp = O=C(O)[C@@H]1C[C@@H](O)CN1; NMeF = CN[C@@H](Cc1ccccc1)C(=O)O; NMeNle = CCCC[C@H](NC)C(=O)O; NMeM = CN[C@@H](CCSC)C(=O)O; NMeA = CN[C@@H](C)C(=O)O; Dab = NCC[C@H](N)C(=O)O; Dap = NC[C@H](N)C(=O)O; ξC = NC(CS)C(=O)O; Sar = CNCC(=O)O
# Legend:
# Human PD-L1/PD-1 = molecular target: T1, Human PD-L1/PD-1 (Homo sapiens, UniProt Q9NZQ7); assay: HTRF PD-1-Ig/PD-L1-His binding assay (human PD-L1); conditions: cluster symbol; read-out: HTRF IC50 cluster
# T1 construct: made in house; host or cells: HEK293T
# Method in brief: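 Interaction of Fc-tagged soluble PD-1 with His-tagged soluble PD-L1 is monitored by time-resolved FRET. Donor is europium cryptate anti-Ig (1 nM final) and acceptor is APC anti-His (20 nM final). Assay buffer is dPBS with 0.1% BSA and 0.05% Tween-20.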
# [1] = molecular target: T2, LK35.2-hPD-L1 cells / PE-labeled PD-1-Ig (Homo sapiens, UniProt Q9NZQ7); assay: LK35.2-hPD-L1 cell binding high-content screening assay; format: cell-based; conditions: cluster symbol, read-out: CBA IC50 cluster
# T2 construct: expressed in transfected cells; host or cells: LK35.2 mouse B cell line
# Method in brief: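 Compound effect on PD-1/PD-L1 binding is measured by imaging cell-associated phycoerythrin signal. Human PD-1-Ig (PE on Ig tag, 1 nM final) is applied with compound to a murine B cell line overexpressing human PD-L1 for 1 h at 37 °C in serum-containing RPMI.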
# [2] = cell binding assay, cell line not given
# [3] = cell line of CBA not given (LK35.2-hPD-L1 or 293T-hPD-L1)
# T1 sequence (Q9NZQ7 with tags, fused parts or gaps): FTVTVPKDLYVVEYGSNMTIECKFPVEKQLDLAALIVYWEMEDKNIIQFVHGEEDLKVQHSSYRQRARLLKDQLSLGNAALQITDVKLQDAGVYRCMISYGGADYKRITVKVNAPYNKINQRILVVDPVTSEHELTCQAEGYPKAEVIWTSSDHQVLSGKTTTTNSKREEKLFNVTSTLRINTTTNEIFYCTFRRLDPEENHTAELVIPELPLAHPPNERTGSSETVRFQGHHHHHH
# T2 sequence (Q9NZQ7 19-290): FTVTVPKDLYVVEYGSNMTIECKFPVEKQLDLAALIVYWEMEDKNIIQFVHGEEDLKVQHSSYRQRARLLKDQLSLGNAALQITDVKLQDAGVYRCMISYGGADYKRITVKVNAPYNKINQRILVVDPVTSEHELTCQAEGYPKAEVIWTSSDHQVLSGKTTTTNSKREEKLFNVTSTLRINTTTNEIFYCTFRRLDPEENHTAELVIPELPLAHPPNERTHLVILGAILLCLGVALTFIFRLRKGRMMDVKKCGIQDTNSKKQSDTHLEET
compound,measurement,setting,value
"CCCC[C@H]1C(=O)N(C)CC(=O)N[C@@H](CC(=O)O)C(=O)N[C@@H](C(C)C)C(=O)N(C)[C@@H](Cc2ccccc2)C(=O)N[C@@H](Cc2ccc(O)cc2)C(=O)N(C)CC(=O)N[C@@H](Cc2c[nH]c3ccccc23)C(=O)N[C@@H](Cc2ccc(O)cc2)C(=O)N[C@@H](CC(C)C)C(=O)N[C@H](C(=O)NCC(N)=O)CSCC(=O)N[C@@H](Cc2ccccc2)C(=O)N(C)[C@@H](Cc2cccc3ccccc23)C(=O)N1C (single isomer, unassigned) [Example 3585-B]",IC50,Human PD-L1/PD-1,6.76 to 30.3 nM
same,IC50,[1]; [2],4.78 to 72.9 nM
CCCC[C@H]1C(=O)N(C)[C@@H](CCCC)C(=O)N[C@@H](CC(C)C)C(=O)N[C@H](C(=O)NCC(N)=O)CSCC(=O)N[C@@H](Cc2ccc(O)cc2)C(=O)N(C)[C@@H](C)C(=O)N[C@@H](CC(N)=O)C(=O)N2CCC[C@H]2C(=O)N[C@@H](Cc2cnc[nH]2)C(=O)N[C@@H](CCC(=O)O)C(=O)N2C[C@H](O)C[C@H]2C(=O)N[C@@H](Cc2csc3ccccc23)C(=O)N[C@@H](CCN)C(=O)N[C@@H](Cc2c[nH]c3ccccc23)C(=O)N1C [Example 5051] ({CH2CO}-Y[NMeA]NPHE[Hyp][Bta][Dab]W[NMeNle][NMeNle]LCG-NH2; thioether N-14),IC50,Human PD-L1/PD-1,> 30.5 nM
same,IC50,[1]; [2],> 74.3 nM
CCCC[C@H]1C(=O)N(C)[C@@H](CCCC)C(=O)N[C@@H](C)C(=O)N[C@H](C(=O)NCC(N)=O)CSCC(=O)N[C@@H](Cc2ccc(O)cc2)C(=O)N(C)[C@@H](C)C(=O)N[C@@H](CC(=O)O)C(=O)N2CCC[C@H]2C(=O)N[C@@H](Cc2cnc[nH]2)C(=O)N[C@@H](CC(C)C)C(=O)N2C[C@H](O)C[C@H]2C(=O)N[C@@H](Cc2c[nH]c3ccccc23)C(=O)N[C@@H](CO)C(=O)N[C@@H](Cc2c[nH]c3ccccc23)C(=O)N1C [Example 1165],IC50,Human PD-L1/PD-1,0.385 to 6.74 nM
same,IC50,[1]; [3],0.158 to 4.71 nM
CCCC[C@H]1C(=O)N(C)[C@@H](CCCC)C(=O)N[C@@H](CN)C(=O)N[C@H](C(=O)NCC(N)=O)CSCC(=O)N[C@@H](Cc2ccc(O)cc2)C(=O)N(C)[C@@H](C)C(=O)N[C@@H](CC(N)=O)C(=O)N2CCC[C@H]2C(=O)N[C@@H](Cc2cnc[nH]2)C(=O)N[C@@H](CC(C)C)C(=O)N2C[C@H](O)C[C@H]2C(=O)N[C@@H](Cc2c[nH]c3ccccc23)C(=O)N[C@@H](CO)C(=O)N[C@@H](Cc2c[nH]c3ccccc23)C(=O)N1C [Example 1132],IC50,Human PD-L1/PD-1,6.76 to 30.3 nM
same,IC50,[1]; [3],0.158 to 4.71 nM
CCCC[C@H]1C(=O)N(C)[C@@H](CCCC)C(=O)N[C@@H](CCCNC(=N)N)C(=O)N[C@H](C(=O)NCC(N)=O)CSCC(=O)N[C@@H](Cc2ccc(C(N)=O)cc2)C(=O)N(C)[C@@H](C)C(=O)N[C@@H](CC(N)=O)C(=O)N2CCC[C@H]2C(=O)N[C@@H](CN)C(=O)N[C@@H](CC(C)C)C(=O)N2C[C@H](O)C[C@H]2C(=O)N[C@@H](Cc2c[nH]c3ccccc23)C(=O)N[C@@H](CO)C(=O)N[C@@H](Cc2c[nH]c3ccccc23)C(=O)N1C [Example 7041] ({CH2CO}-[Phe(4-CONH2)][NMeA]NP[Dap]L[Hyp]WSW[NMeNle][NMeNle]RCG-NH2; thioether N-14),IC50,Human PD-L1/PD-1,6.76 to 30.3 nM
same,IC50,[1]; [2],4.78 to 72.9 nM
CCCC[C@H]1C(=O)N(C)CC(=O)N[C@@H](CC(=O)O)C(=O)N[C@@H](C(C)C)C(=O)N[C@@H](Cc2ccc(Cl)cc2)C(=O)N[C@@H](Cc2ccc(O)cc2)C(=O)N(C)CC(=O)N[C@@H](Cc2c[nH]c3ccccc23)C(=O)N[C@@H](Cc2ccc(O)cc2)C(=O)N[C@@H](CC(C)C)C(=O)N[C@H](C(=O)NCC(N)=O)CSCC(=O)N[C@@H](Cc2ccccc2)C(=O)N(C)[C@@H](Cc2ccccc2)C(=O)N1C [Example 3145] ({CH2CO}-F[NMeF][NMeNle][Sar]DV[Phe(4-Cl)]Y[Sar]WYLCG-NH2; thioether N-13),IC50,Human PD-L1/PD-1,> 30.5 nM
same,IC50,[1]; [3],> 74.3 nM
CCCC[C@H]1C(=O)N(C)[C@@H](CCCC)C(=O)N[C@@H](CCCNC(=N)N)C(=O)N[C@H](C(=O)NCC(N)=O)CSCC(=O)N[C@@H](Cc2ccc(F)cc2)C(=O)N(C)[C@@H](C)C(=O)N[C@@H](CC(N)=O)C(=O)N2CCC[C@H]2C(=O)N[C@@H](CN)C(=O)N[C@@H](CC(C)C)C(=O)N2C[C@H](O)C[C@H]2C(=O)N[C@@H](Cc2c[nH]c3ccccc23)C(=O)N[C@@H](CO)C(=O)N[C@@H](Cc2c[nH]c3ccccc23)C(=O)N1C [Example 7048] ({CH2CO}-[Phe(4-F)][NMeA]NP[Dap]L[Hyp]WSW[NMeNle][NMeNle]RCG-NH2; thioether N-14),IC50,Human PD-L1/PD-1,0.385 to 6.74 nM
same,IC50,[1]; [2],> 74.3 nM
CCCC[C@H]1C(=O)N(C)CC(=O)N[C@@H](CC(=O)O)C(=O)N[C@@H](C(C)C)C(=O)N(C)[C@@H](Cc2ccccc2)C(=O)N[C@@H](Cc2c(F)c(F)c(F)c(F)c2F)C(=O)N(C)CC(=O)N[C@@H](Cc2c[nH]c3ccccc23)C(=O)N[C@@H](Cc2ccc(O)cc2)C(=O)N[C@@H](CC(C)C)C(=O)N[C@H](C(=O)NCC(N)=O)CSCC(=O)N[C@@H](Cc2ccccc2)C(=O)N(C)[C@@H](Cc2ccccc2)C(=O)N1C [Example 3079] ({CH2CO}-F[NMeF][NMeNle][Sar]DV[NMeF][Phe(F5)][Sar]WYLCG-NH2; thioether N-13),IC50,Human PD-L1/PD-1,> 30.5 nM
same,IC50,[1]; [3],4.78 to 72.9 nM
CC(C)C[C@@H]1NC(=O)[C@@H](Cc2c[nH]cn2)NC(=O)[C@@H]2CCCN2C(=O)[C@@H](CC(N)=O)NC(=O)C(C)N(C)C(=O)[C@H](Cc2ccc(O)cc2)NC(=O)CSC[C@H](C(=O)NCC(N)=O)NC(=O)[C@H](C)NC(=O)[C@@H](CC(=O)O)N(C)C(=O)[C@@H](CCCCN)N(C)C(=O)[C@H](Cc2c[nH]c3ccccc23)NC(=O)[C@H](CO)NC(=O)[C@@H](Cc2c[nH]c3ccccc23)NC(=O)C2C[C@@H](O)CN2C1=O (stereo partly drawn) [Example 1221],IC50,Human PD-L1/PD-1,> 30.5 nM
same,IC50,[1]; [3],> 74.3 nM
"CCCC[C@H]1C(=O)N(C)CC(=O)N[C@@H](CC(=O)O)C(=O)N[C@@H](C(C)C)C(=O)N(C)[C@@H](Cc2ccccc2)C(=O)N[C@@H](Cc2ccc(O)cc2)C(=O)N(C)CC(=O)N[C@@H](Cc2c[nH]c3ccccc23)C(=O)N[C@@H](Cc2ccc(O)cc2)C(=O)N[C@@H](CC(C)C)C(=O)N[C@H](C(=O)NCC(N)=O)CSCC(=O)N[C@@H](Cc2ccc(F)c(F)c2)C(=O)N(C)[C@@H](Cc2ccccc2)C(=O)N1C [Example 3130] ({CH2CO}-[Phe(3,4-F2)][NMeF][NMeNle][Sar]DV[NMeF]Y[Sar]WYLCG-NH2; thioether N-13)",IC50,Human PD-L1/PD-1,6.76 to 30.3 nM
same,IC50,[1]; [3],0.158 to 4.71 nM
CCCC[C@H]1C(=O)N(C)[C@@H](CCSC)C(=O)N[C@@H](C)C(=O)NC(C(=O)NCC(N)=O)CSCC(=O)N[C@@H](Cc2ccc(O)cc2)C(=O)N(C)[C@@H](C)C(=O)N[C@@H](CC(N)=O)C(=O)N2CCC[C@H]2C(=O)N[C@@H](CN)C(=O)N[C@@H](CC(C)C)C(=O)N2C[C@H](O)C[C@H]2C(=O)N[C@@H](Cc2c[nH]c3ccccc23)C(=O)N[C@@H](CO)C(=O)N[C@@H](Cc2csc3ccccc23)C(=O)N1C (stereo partly drawn) [Example 9088] ({CH2CO}-Y[NMeA]NP[Dap]L[Hyp]WS[Bta][NMeNle][NMeM]A[ξC]G-NH2; thioether N-14),IC50,Human PD-L1/PD-1,0.385 to 6.74 nM
same,IC50,[1]; [2],0.158 to 4.71 nM
CCCC[C@H]1C(=O)N(C)CC(=O)N[C@@H](CC(=O)O)C(=O)N[C@@H](C(C)C)C(=O)N(C)[C@@H](Cc2ccccc2)C(=O)N[C@@H](Cc2ccc(O)cc2)C(=O)N(C)CC(=O)N[C@@H](Cc2nc3ccccc3s2)C(=O)N[C@@H](Cc2ccc(O)cc2)C(=O)N[C@@H](CC(C)C)C(=O)N[C@H](C(=O)NCC(N)=O)CSCC(=O)N[C@@H](Cc2ccccc2)C(=O)N(C)[C@@H](Cc2ccccc2)C(=O)N1C [Example 3557] ({CH2CO}-F[NMeF][NMeNle][Sar]DV[NMeF]Y[Sar][Ala(benzothiazol-2-yl)]YLCG-NH2; thioether N-13),IC50,Human PD-L1/PD-1,> 30.5 nM
same,IC50,[1]; [2],> 74.3 nM
